From US20200061090A1, “AGENT FOR PREVENTING WORSENING OF INSULIN RESISTANCE OR AMELIORATING INSULIN RESISTANCE” (B FOOD SCIENCE CO., LTD., priority 2017, published 2020)

Assays:
[1] = Food processing and ingredients, Vol. 49, No. 12, p. 9, 2014; cited from earlier work
[2] = test system: SD rats; test: Effects of 1-kestose on rats taking a high-fat diet (obese model) or ordinary diet: plasma insulin, blood glucose, body weight; format: in vivo, rat; details: for Plasma insulin level / Blood glucose level: 135 days; for Plasma insulin level / Blood glucose level / Body weight: average ± SD; for Body weight: end of breeding period (19 weeks)
Procedure: SD rats (Japan SLC, Inc.) were divided into 4 groups of 6 to 8 rats each to be Group A to Group D. During the breeding period, Group A and Group C had discretionary intake of tap water. On the other hand, Group B and Group D were allowed to take 1-kestose by providing discretionary intake of a solution in which 1-kestose was dissolved in purified water in such a way as to be 2 mass %. Additionally, Group A and Group B had discretionary intake of […] (Research Diets, Inc.) as an “ordinary diet”, and Group C and Group D had discretionary intake of D12492 (Research Diets, Inc.) as a “high-fat diet”. The rats were bred for 135 days with the same breeding conditions as Example 1 (1) except feed. The composition of feed is shown below.
(§1) Casein: 200, L-cystine: 3, Cornstarch: 506.2, maltodextrin 10: 125, sucrose: 68.8, cellulose BW200: 50, purified soybean oil: 25, lard: 20, mineral mix S10026: 10, dicalcium phosphate: 13, calcium carbonate: 5.5, potassium citrate monohydrate: 16.5, vitamin mix V10001: 10, choline bitartrate: 2, yellow synthetic dye (FD&C Yellow Dye #1): 0.04, blue synthetic dye (FD&C Blue Dye #1): 0.01.
as §1, with “3,” for “3, Cornstarch: 506.2,”, “245,” for “20,”, “2,” for “2, yellow synthetic dye (FD&C Yellow Dye #1): 0.04,”, “0.05.” for “0.01.”
As the average intake amount of water taken by a rat per day was about 22 mL/rat.
The rats of each Group in this Example 2 (1) were measured for body weight every week during the breeding period, and an average value by each Group was calculated and expressed in line graphs. Note that the body weights (g) of each Group at the start of breeding period were 272±5 for Group A, 268±6 for Group B, 272±3 for Group C, and 269±3 for Group D.
Further, plasma insulin levels and blood glucose levels were measured by the method described in Example 1 (2) to calculate an average value and a standard deviation by each Group. […] Additionally, insulin levels and glucose levels are shown in FIG. 4 and FIG. 5 in bar graphs, respectively.

[3] = test system: OLETF (Otsuka Long-Evans Tokushima Fatty) rats; test: Effect of 1-kestose on type 2 diabetes model OLETF rats: plasma insulin and blood glucose; format: in vivo, rat; details: for Plasma insulin level / Blood glucose level: 14 days, average ± SD; for Plasma insulin level: Group C control 3.36 ± 0.53; for Blood glucose level: Group C control 151 ± 6
Procedure: (§2) OLETF (Otsuka Long-Evans Tokushima Fatty) rats (Japan SLC, Inc.), which are model animals with pathological conditions of type 2 diabetes, and LETO (Long-Evans Tokushima Otsuka) rats (Japan SLC, Inc.), which are the controls thereof, were prepared. The LETO rats were divided into 2 groups of 5 rats each to be Group A and Group B. Further, the OLETF rats were divided into 3 groups of 8 rats each to be Group C, Group D, and Group E. During the breeding period, Group A and Group C had discretionary intake of “feed without 1-kestose” described in Example 1 (1), Group B and Group E had discretionary intake of “feed containing 5 mass % of 1-kestose”, and Group D had discretionary intake of “feed containing 1 mass % of 1-kestose”. The rats were bred for 14 days with the same breeding conditions as Example 1 (1)
(§3) For the rats of each Group of this Example 3 (1), plasma insulin levels and blood glucose levels were measured by the method described in Example 1 (2) to calculate an average value and a standard deviation by each Group. Additionally, plasma insulin levels and blood glucose levels are shown in FIG. 6 and FIG. 7 in bar graphs, respectively.

[4] = test system: SD rats; test: Effect of 1-kestose on rats taking an ordinary diet (healthy model): serum insulin and blood glucose; format: in vivo, rat; details: for Serum insulin level / Blood glucose level: average ± SD; for Serum insulin level: Group A control 4.34 ± 0.51; for Blood glucose level: Group A control 207 ± 11
Procedure: Feed containing 1-kestose in such a way as to be 0, 0.5, 1, 2.5 and 5 mass % was prepared by CLEA Japan, Inc. on commission. The composition of feed is shown below.
Cornstarch: 39.7486, milk casein: 20, pregelatinized cornstarch: 13.2, granulated sugar or granulated sugar and 1-kestose: 10, purified soybean oil: 7, cellulose powder: 5, mineral mix: 3.5, vitamin mix: 1, L-cystine: 0.3, choline bitartrate: 0.25, tertiary butyl hydroquinone: 0.0014.
Forty SD rats (Japan SLC, Inc.) were divided into 5 groups of 8 rats each to be Groups A to E. Group A and Groups B to E had discretionary intake of feed without 1-kestose and 1-kestose-containing feed, respectively, while bred for 30 days. Breeding conditions included a temperature of 23±1° C., a light period of 12 hours (8:00 to 20:00) and a dark period of 12 hours (20:00 to 8:00).
The obtained serum was measured for an insulin level by ELISA technique and a glucose level by glucose oxidase method, to calculate an average value and a standard deviation by each Group. Additionally, serum insulin levels and blood glucose levels are shown in FIG. 1 and FIG. 2 in bar graphs, respectively.

[5] = test system: LETO (Long-Evans Tokushima Otsuka) rats; test: Effect of 1-kestose on LETO control rats of the type 2 diabetes model: plasma insulin and blood glucose; format: in vivo, rat
Procedure: as §2, §3

[6] = OLETF rats, Group D, feed containing 1% of 1-kestose (table prints 1.34 g/kg body weight daily)
[7] = OLETF rats, Group E, feed containing 5% of 1-kestose (2.71 g/kg body weight daily)
[8] = Group C, feed containing 1% of 1-kestose (0.54 g/kg body weight daily), 30 days
[9] = Group D, feed containing 2.5% of 1-kestose (1.34 g/kg body weight daily), 30 days
[10] = Group E, feed containing 5% of 1-kestose (2.71 g/kg body weight daily), 30 days

OC[C@H]1O[C@@](CO)(OC[C@@]2(O[C@H]3O[C@H](CO)[C@@H](O)[C@H](O)[C@H]3O)O[C@H](CO)[C@@H](O)[C@@H]2O)[C@@H](O)[C@@H]1O [1-kestose]
Toxicity in mutagenicity test, acute toxicity test, subchronic toxicity test and chronic toxicity test [1]: not recognized to have toxicity | Blood glucose levels compared among groups ([2]; Groups A to D, regardless of whether or not 1-kestose was taken): equivalent blood glucose levels | Plasma insulin levels of rats taking the high-fat diet and 1-kestose compared with rats taking the ordinary diet ([2]; High-fat diet, Group D vs Groups A and B, Group C notably higher): equivalent plasma insulin levels | Plasma insulin level ([2]; High-fat diet, Group D, 2 mass % 1-kestose solution (0.44 g/rat daily), Group C tap water 6.65 ± 1.03): 2.28 ± 0.63 ng/mL | Blood glucose level ([2]; High-fat diet, Group D, 2 mass % 1-kestose solution (0.44 g/rat daily), Group C tap water 155 ± 4): 147 ± 2 mg/dL | Body weight ([2]; High-fat diet, Group D, 2 mass % 1-kestose solution (0.44 g/rat daily), Group C tap water 764 ± 32): 718 ± 21 g | Blood glucose level ([2]; Ordinary diet, Group B, 2 mass % 1-kestose solution (0.44 g/rat daily), Group A tap water 147 ± 5): 143 ± 3 mg/dL | Body weight ([2]; Ordinary diet, Group B, 2 mass % 1-kestose solution (0.44 g/rat daily), Group A tap water 665 ± 14): 679 ± 22 g | Plasma insulin level ([2]; Ordinary diet, Group B, 2 mass % 1-kestose solution as drinking water (0.44 g/rat daily), Group A tap water 2.48 ± 0.52): 2.30 ± 0.42 ng/mL | Plasma insulin levels compared with OLETF rats not taking 1-kestose ([3]; Group C>Group D>Group E): lower plasma insulin levels | Plasma insulin level [3, 6]: 3.04 ± 0.69 ng/mL | Blood glucose level [3, 6]: 163 ± 4 mg/dL | Plasma insulin level [3, 7]: 2.53 ± 0.29 ng/mL | Blood glucose level [3, 7]: 157 ± 3 mg/dL | Blood glucose levels compared among groups ([3]; OLETF rats, regardless of whether or not 1-kestose was taken): equivalent blood glucose levels | Serum insulin level ([4]; Group B, feed containing 0.5% of 1-kestose (0.27 g/kg body weight daily), 30 days, n=8): 3.04 ± 0.38 ng/mL | Blood glucose level ([4]; Group B, feed containing 0.5% of 1-kestose (0.27 g/kg body weight daily), 30 days): 202 ± 10 mg/dL | Serum insulin level [4, 8]: 3.08 ± 0.31 ng/mL | Blood glucose level [4, 8]: 192 ± 11 mg/dL | Serum insulin level [4, 9]: 2.56 ± 0.31 ng/mL | Blood glucose level [4, 9]: 202 ± 4 mg/dL | Serum insulin level [4, 10]: 2.01 ± 0.24 ng/mL | Blood glucose level [4, 10]: 188 ± 7 mg/dL | Blood glucose levels compared with rats not taking 1-kestose ([4]; Groups A to E, irrelevant to the intake amount): equivalent blood glucose levels | Serum insulin levels compared with Group A (rats not taking 1-kestose) ([4]; Groups B, C, D and E (0.5 to 5% 1-kestose in feed) vs Group A, 30 days): significantly lower | Plasma insulin levels compared with LETO rats not taking 1-kestose ([5]; Group B vs Group A): lower plasma insulin levels | Plasma insulin level ([5]; LETO rats, Group B, feed containing 5% of 1-kestose (2.71 g/kg body weight daily), 14 days, average ± SD, Group A control 1.49 ± 0.19): 1.08 ± 0.09 ng/mL | Blood glucose level ([5]; LETO rats, Group B, feed containing 5% of 1-kestose (2.71 g/kg body weight daily), 14 days, average ± SD, Group A control 146 ± 3): 144 ± 2 mg/dL | Blood glucose levels compared among groups ([5]; LETO rats, regardless of whether or not 1-kestose was taken): equivalent blood glucose levels
